Experimental data taken from PMC12562276, “Effects of Intramuscular Vasopressin on Pharmacokinetics and Pharmacodynamics in Healthy Neonatal Piglets: A Dose–Response Study” (Children, 2025).
Where two headings read alike, the source gives them in different places.

How the values were obtained:
[1] = system: isolated working rat heart; details: during normoxia (not during hypoxia); cited from earlier work
Description: Through its vasoconstrictor effects, vasopressin increases SVR, thereby increasing arterial blood pressure. […] In an anesthetized open-chest dog model, Nakano administered various doses of vasopressin and reported a dose-related relationship between increasing doses and r ...

dogs = details: IV vasopressin, cited from earlier work
Description: In the current study, we determined the optimal IM vasopressin dose to be 8 IU/kg, as there were significant changes in hemodynamics and left ventricular contractile function following its administration, while there were little to no hemodynamic changes following 4 IU/kg IM vasopressin administration. […] Even if IV access can be achieved before two minutes, IV concentra ...

healthy neonatal piglets [2] = assay: Hemodynamic and cardiac function parameters after IV or IM vasopressin; format: in vivo; details: for Changes in hemodynamic parameters: n = 5
Procedure: Piglets were instrumented as previously described with modifications. Following induction of anesthesia using isoflurane, piglets underwent a tracheostomy for intubation. Pressure-controlled ventilation (Sechrist Infant Ventilator Model IV-100; Sechrist Industries, Anaheim, CA, USA) was commenced at a respiratory rate of 16–20 breaths/min and pressure of 20/5 cmH2O. Oxygen saturation was maintained within 90–100%, while glucose was provided via an IV infusion of 5% dextrose at 10 mL/kg/hr. IV propofol (5–10 mg/kg/h) and morphine (0.1 mg/kg/h) were provided to maintain anaesthesia, and additional IV doses of propofol (1–2 mg/kg) and morphine (0.05–0.1 mg/kg) were administered as needed (i.e., to maintain adequate sedation/pain medication as determined by movement/pain response). Piglets’ normothermic body temperature of 38.5–39.5 °C was maintained with a heating pad and overhead warmer.
5-French Argyle® (Klein-Baker Medical Inc. San Antonio, TX, USA) double-lumen and single-lumen catheters were inserted via the right femoral vein and artery, respectively. The femoral venous catheter was used for administration of fluids and medications and the arterial catheter for continuous arterial blood pressure monitoring in addition to arterial blood gas measurements. A real-time ultrasonic flow probe (2 mm; Transonic Systems Inc., Ithica, NY, USA) encircled the right common carotid artery to measure cerebral blood flow. A Millar® catheter (MPVS Ultra1, ADInstruments, Houston, TX, USA) was inserted into the left ventricle via the left common carotid artery for continuous measurement of stroke volume, ejection fraction, end-diastolic and -systolic volumes, left ventricular pressure, and left ventricular contractile function (dP/dtmax, dP/dtmin).
Following surgical instrumentation, piglets were placed in the supine position and allowed to recover from surgical instrumentation until baseline hemodynamic measures were stable (minimum one hour). Ventilator rate was adjusted to maintain the partial arterial CO2 between 35–45 mmHg, as determined by periodic arterial blood gas analysis. A Hewlett Packard 78833B monitor (Hewlett Packard Co., Palo Alto, CA, USA) was used for the continuous measurement of heart rate, mean systemic arterial pressure (MAP), systemic systolic and diastolic arterial pressure, and percutaneous oxygen saturation throughout the experiment.
Cerebral oxygenation (crSO2) was measured using the Invos^TM Cerebral/Somatic Oximeter Monitor (Invos 5100, Somanetics Corp., Troy, MI, USA), which calculates crSO2 and expresses values as the percentage of oxygenated haemoglobin (oxygenated haemoglobin/total haemoglobin). The sensors were placed on the right forehead of the piglet and secured with wrap and tape. A slim cap provided light shielding. Regional oxygen saturation values were recorded every second at a sample rate of […].
(§1) Following surgical instrumentation and stabilization, a consecutively numbered, sealed brown envelope containing the group allocation was opened (Figure 1). Piglets were randomized into three groups: 0.4 IU/kg IV vasopressin 4 IU/kg IM vasopressin, or 8 IU/kg IM vasopressin. Piglets that were randomized to “IM” were administered one dose intramuscularly in the left inner thigh muscle while piglets randomized to “IV” were administered one dose via the femoral venous catheter followed with a 3 mL normal saline bolus. Arterial blood was collected before drug administration (baseline = time point “0 min”), 1, 2, 3, 4, 5, and 10 min after drug administration. Following final collection of blood, piglets were euthanized with an intravenous overdose of sodium pentobarbital and autopsies of IM injection sites were conducted to assess local tissue damage […].
Demographics of study piglets were recorded. […]

healthy neonatal piglets [3] = assay: Autopsy of IM injection sites for local tissue damage; format: in vivo; details: autopsies post-euthanasia; IM 4 or 8 IU/kg, left inner thigh muscle
Procedure: as §1

[4] = Plasma vasopressin concentrations and pharmacokinetics after IV or IM vasopressin; format: in vivo, neonatal piglets; details: for level at 1 min / level at 5 min / level at 10 min / AUC(0-t): pig, plasma, n = 5/group, median (IQR); for level at 1 min: 1 min after administration; for level at 1 min / level at 5 min / level at 10 min: arterial blood, read-out: Plasma vasopressin concentration; for level at 5 min: 5 min after administration; for level at 10 min: 10 min after administration; for AUC(0-t): neonatal piglets, read-out: Area under the curve from baseline to 10 min (AUC0–10) (converted)
Procedure: as §1
Demographics of study piglets were recorded. Transonic flow probes, heart rate, and pressure transducer outputs, and Millar catheter were digitized and recorded with LabChart® 8.1.30, programming software (ADInstruments, Houston, TX, USA). Plasma vasopressin concentrations and pharmacokinetic parameters were quantified and analyzed as previously described. Reported plasma vasopressin concentrations only represent exogenous arginine vasopressin. Since pigs produce lysine vasopressin, endogenous vasopressin concentrations could not be quantified.
The data are presented as mean (standard deviation—SD) for normally distributed continuous variables and median (interquartile range—IQR) when the distribution was skewed. The data was tested for normality (Shapiro–Wilk and Kolmogorov–Smirnov test) and compared using either Student’s t-test (data normally distributed), Rank Sum if data were skewed, one- and two-way ANOVA with Dunnett post-test, or Fisher’s exact test for categorical variables. Both Hedges’ g and Cliff’s delta (δ) were reported as standardized measures of effect size as appropriate for parametric and non-parametric data, respectively. Pearson or Spearman’s correlations were reported for parametric or non-parametric data, respectively. p-values are 2-sided and p < 0.05 was considered statistically significant. Statistical analyses were performed with SigmaPlot (Systat Software Inc., San Jose, CA, USA) and R version 4.3.2.

[5] = 0.4 IU/kg IV, anesthetized piglets
[6] = 8 IU/kg IM, anesthetized piglets

Question: What does the source list for `NC(=O)CC[C@@H]1NC(=O)[C@H](Cc2ccccc2)NC(=O)[C@H](Cc2ccc(O)cc2)NC(=O)[C@@H](N)CSSC[C@@H](C(=O)N2CCC[C@H]2C(=O)N[C@@H](CCCN=C(N)N)C(=O)NCC(N)=O)NC(=O)[C@H](CC(N)=O)NC1=O` [vasopressin, arginine vasopressin]?
Answer: dP/dtmax [1]: significantly decreased; Decrease in cardiac output (dogs; baroreceptor-denervated dogs): −22.8 (3.0) mL/kg min; Decrease in heart rate (dogs; baroreceptor-denervated dogs): −10 (5) beats/minute; Decrease in cardiac output (dogs; healthy dogs): −39.2 (3.8) mL/kg min; Decrease in heart rate (dogs; healthy dogs): −22 (4) beats/minute; Brain oxygen saturation compared to baseline (healthy neonatal piglets [2]; 0.4 IU/kg IV): Significantly lower; dP/dtmin (healthy neonatal piglets [2]; 0.4 IU/kg IV): no significant changes; Stroke volume, cardiac output and ejection fraction (healthy neonatal piglets [2]; 0.4 IU/kg IV, 1–3 min after administration): significantly lower; Stroke volume and cardiac output (healthy neonatal piglets [2]; 0.4 IU/kg IV, one minute after administration): significantly lower; Carotid blood flow compared with 8 IU/kg IM (healthy neonatal piglets [2]; 0.4 IU/kg IV, throughout the experimental period, p = 0.032): much lower; Changes in hemodynamic parameters (healthy neonatal piglets [2]; 4 IU/kg IM): failed to produce significant changes; dP/dtmax (left ventricular contractile function) (healthy neonatal piglets [2]; 8 IU/kg IM): significantly reduced; dP/dtmin (healthy neonatal piglets [2]; 8 IU/kg IM): no significant changes; Changes in hemodynamic parameters (healthy neonatal piglets [2]; 8 IU/kg IM): induced significant hemodynamic changes; MAP, systolic and diastolic pressure (healthy neonatal piglets [2]; 8 IU/kg IM, vs baseline): significant increases; Local tissue damage at the IM injection sites (healthy neonatal piglets [3]): did not reveal any significant local tissue damage; Plasma concentrations compared with IV vasopressin ([4]; 4 IU/kg IM vs 0.4 IU/kg IV, p < 0.001): significantly lower; Plasma concentrations compared with IV vasopressin ([4]; 8 IU/kg IM, two minutes after administration): comparable to IV vasopressin; level at 1 min [4, 5]: 2.2 ng/mL; level at 5 min [4, 5]: 1.74 ng/mL; level at 10 min [4, 5]: 1.34 ng/mL; AUC(0-t) ([4]; 0.4 IU/kg IV): 0.266 ng·h/mL; AUC(0-t) ([4]; 4 IU/kg IM): 0.155 ng·h/mL; level at 1 min ([4]; 8 IU/kg IM, anesthetized piglets 1–3 days old, exogenous arginine vasopressin only): 0.39 ng/mL; level at 5 min [4, 6]: 2.64 ng/mL; level at 10 min [4, 6]: 2.83 ng/mL; AUC(0-t) ([4]; 8 IU/kg IM): 0.339 ng·h/mL
